In the NIST ThermoML archive (doi:10.1016/j.jct.2010.07.008):

Conditions: Liquid, Closed cell (Static) method

CN(C)CCOCCO [2-(2-dimethylaminoethoxy)ethanol]
Conditions | vapor or sublimation pressure [kPa]
283.15 K | 0.007
293.14 K | 0.016
303.09 K | 0.0346
313.08 K | 0.0707
323.28 K | 0.1418
333.12 K | 0.2604
343.12 K | 0.4742
353.14 K | 0.8145
363.35 K | 1.419
373.1 K | 2.315
